Assay results taken from ChEMBL document CHEMBL1201862, “PubChem BioAssay data set” (2004).
Active and inactive are the calls of the source.

Assays:
[1] = molecular target: Eukaryotic translation initiation factor 4E (Mus musculus, UniProt P63073); assay: blockers of eIF4G binding by eIF4E – biochemical, TR-FRET, dose response (AID 855); type: functional;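 note: potency for disrupting eIF4E binding to eIF4GI seen as loss of FRET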
[2] = molecular target: DNA dC->dU-editing enzyme APOBEC-3A (Homo sapiens, UniProt P31941); assay: Dose Response confirmation of small molecule APOBEC3A DNA Deaminase Inhibitors via a fluorescence-based single-stranded DNA deaminase assay. [Related pubchem assays (depositor defined):AID493011, AID493024]; type: functional
DNA dC->dU-editing enzyme APOBEC-3A, sequence (P31941 whole entry): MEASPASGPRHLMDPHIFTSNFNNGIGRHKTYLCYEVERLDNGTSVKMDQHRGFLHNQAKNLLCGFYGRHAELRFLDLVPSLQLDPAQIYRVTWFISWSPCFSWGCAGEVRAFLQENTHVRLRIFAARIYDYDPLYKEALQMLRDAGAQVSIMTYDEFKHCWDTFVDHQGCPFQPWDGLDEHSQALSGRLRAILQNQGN

[3] = molecular target: DNA dC->dU-editing enzyme APOBEC-3G (Homo sapiens, UniProt Q9HC16); type: functional;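 note: Dose-response counterscreen measuring inhibition of APOBEC3G DNA deaminase activity, run while confirming APOBEC3A inhibitors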
DNA dC->dU-editing enzyme APOBEC-3G, sequence (Q9HC16 whole entry, the tested form may be a part): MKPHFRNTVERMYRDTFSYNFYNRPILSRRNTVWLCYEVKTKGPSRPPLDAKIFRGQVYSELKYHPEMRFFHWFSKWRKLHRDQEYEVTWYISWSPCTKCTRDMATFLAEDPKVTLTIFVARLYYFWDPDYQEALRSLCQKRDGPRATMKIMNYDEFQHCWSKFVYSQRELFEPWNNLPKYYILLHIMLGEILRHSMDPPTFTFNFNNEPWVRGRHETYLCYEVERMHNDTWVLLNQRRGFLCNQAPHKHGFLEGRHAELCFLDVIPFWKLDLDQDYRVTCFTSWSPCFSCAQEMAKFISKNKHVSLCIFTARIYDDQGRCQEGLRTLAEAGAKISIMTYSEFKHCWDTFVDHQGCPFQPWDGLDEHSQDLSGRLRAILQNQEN

[4] = molecular target: T1, Carboxy-terminal domain RNA polymerase II polypeptide A small phosphatase 1 (Homo sapiens, UniProt Q9GZU7); assay: CTDSP1 inhibitors, concentration-response, biochemical, absorbance readout, ultra-high-throughput screen actives (AID 540297); type: functional
T1 sequence (Q9GZU7 whole entry): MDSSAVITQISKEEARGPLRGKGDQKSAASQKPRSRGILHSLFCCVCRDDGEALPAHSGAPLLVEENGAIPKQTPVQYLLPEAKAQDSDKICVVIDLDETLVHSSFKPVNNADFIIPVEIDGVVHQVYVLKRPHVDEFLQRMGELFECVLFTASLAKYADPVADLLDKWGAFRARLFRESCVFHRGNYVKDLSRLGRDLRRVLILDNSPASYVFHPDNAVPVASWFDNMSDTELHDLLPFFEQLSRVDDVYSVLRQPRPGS

HEK293 [5] = assay: NOD2 signaling inhibitors in MDP-stimulated cells, cell-based, uHTS, luminescence (AID 2001); type: functional; conditions: Homo sapiens
HEK293 [6] = assay: cells; type: functional, cell-based; conditions: Homo sapiens
HEK293 [7] = assay: cells; type: functional, cell-based; conditions: Homo sapiens; remark: listed apart in the source
HEK293 [8] = assay: inhibition of NOD1-driven NF-kB reporter – cell-based, luminescence, uHTS, primary screen (AID 1578); type: functional; conditions: Homo sapiens
Leucine aminopeptidase = molecular target: T2, Leucine aminopeptidase (Plasmodium falciparum 3D7, UniProt Q8IL11); assay: P. falciparum M17LAP inhibitors, primary screen, biochemical, fluorogenic H-Leu-NHMec substrate, 1536-well (AID 1619); type: functional
T2 sequence (Q8IL11 whole entry): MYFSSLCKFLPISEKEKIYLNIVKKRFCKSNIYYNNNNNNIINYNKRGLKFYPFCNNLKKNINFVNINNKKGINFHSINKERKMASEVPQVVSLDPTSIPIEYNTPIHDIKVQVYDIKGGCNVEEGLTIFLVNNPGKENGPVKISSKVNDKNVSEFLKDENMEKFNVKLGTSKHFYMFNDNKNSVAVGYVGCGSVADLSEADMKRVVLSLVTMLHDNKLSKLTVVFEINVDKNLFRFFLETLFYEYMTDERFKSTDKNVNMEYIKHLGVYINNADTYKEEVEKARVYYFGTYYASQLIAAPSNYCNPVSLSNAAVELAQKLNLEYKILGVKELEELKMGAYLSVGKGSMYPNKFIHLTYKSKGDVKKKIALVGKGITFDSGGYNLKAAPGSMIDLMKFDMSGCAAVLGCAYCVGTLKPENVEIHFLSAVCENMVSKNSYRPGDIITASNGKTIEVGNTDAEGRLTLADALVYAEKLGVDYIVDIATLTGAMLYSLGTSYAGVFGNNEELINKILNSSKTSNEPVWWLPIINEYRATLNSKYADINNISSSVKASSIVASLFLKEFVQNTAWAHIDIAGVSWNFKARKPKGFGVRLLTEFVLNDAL

[9] = molecular target: Glyceraldehyde-3-phosphate dehydrogenase (Homo sapiens, UniProt P04406)
Glyceraldehyde-3-phosphate dehydrogenase, sequence (P04406 whole entry, the tested form may be a part): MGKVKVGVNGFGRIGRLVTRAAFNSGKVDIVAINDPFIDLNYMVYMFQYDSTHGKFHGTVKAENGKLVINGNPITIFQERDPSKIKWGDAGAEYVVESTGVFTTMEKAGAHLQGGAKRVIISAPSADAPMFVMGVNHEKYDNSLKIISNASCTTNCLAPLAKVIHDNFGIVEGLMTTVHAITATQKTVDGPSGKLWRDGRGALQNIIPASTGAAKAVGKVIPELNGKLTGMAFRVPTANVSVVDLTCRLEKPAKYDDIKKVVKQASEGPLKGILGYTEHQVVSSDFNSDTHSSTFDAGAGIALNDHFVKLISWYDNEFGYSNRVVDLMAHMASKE

[10] = HIV-1 AD8 envelope cell-cell fusion blockers – cherry-pick, dose response (AID 652062); type: functional, cell-based;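 note: luciferase signal from cell-cell fusion driven by HIV-1 clade B AD8 Env; potency is for inhibitors of fusion seen as a drop in luminescence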
[11] = off-target signal loss in HeLa-CEM21 co-culture – HeLa F-luc CTL cells, cherry-picked, counter-screen for HIV-1 Env fusion inhibitor project, dose response (AID 652040); type: functional, cell-based;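 note: potency for signal decrease marking cytotoxic or nonspecific inhibition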
[12] = blockers of HIV-1 envelope-mediated cell-cell fusion – cherry-pick, dose response (AID 652057); type: functional, cell-based
[13] = blockers of HIV-1 ZM109 envelope-driven cell-cell fusion – HeLa effector, CEM target cells, luciferase, cherry-pick, dose response (AID 652058); type: functional, cell-based;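 note: luciferase signal from HIV-1 Env mediated cell-cell fusion of effector and target cells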
[14] = loss of viability in HepG2 cells – cell-based, CellTiter-Glo, cherry-picked, cytotoxicity control for Shn3 inhibitor project, dose response (AID 624134); type: functional
[15] = non-specific 3'UTR reporter inhibition in Clone20-Shn3RL – cell-based, Renilla luciferase, cherry-picked, counter-screen for Shn3 inhibitor project, dose response (AID 624133); type: functional
[16] = reduction of Shn3 3'UTR-driven luciferase in osteoblasts – cell-based, Clone20 osteoblasts, firefly luciferase, cherry-picked, dose response (AID 624132); type: functional;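 note: firefly luciferase luminescence from reporter carrying the Shn3 3'UTR in osteoblasts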
Cytochrome P450 3A4 = Cytochrome P450 3A4 (Homo sapiens, UniProt P08684); conditions: Potency;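 note: confirmatory qHTS run detecting inhibitors and substrates of CYP3A4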
Cytochrome P450 3A4, sequence (P08684 whole entry): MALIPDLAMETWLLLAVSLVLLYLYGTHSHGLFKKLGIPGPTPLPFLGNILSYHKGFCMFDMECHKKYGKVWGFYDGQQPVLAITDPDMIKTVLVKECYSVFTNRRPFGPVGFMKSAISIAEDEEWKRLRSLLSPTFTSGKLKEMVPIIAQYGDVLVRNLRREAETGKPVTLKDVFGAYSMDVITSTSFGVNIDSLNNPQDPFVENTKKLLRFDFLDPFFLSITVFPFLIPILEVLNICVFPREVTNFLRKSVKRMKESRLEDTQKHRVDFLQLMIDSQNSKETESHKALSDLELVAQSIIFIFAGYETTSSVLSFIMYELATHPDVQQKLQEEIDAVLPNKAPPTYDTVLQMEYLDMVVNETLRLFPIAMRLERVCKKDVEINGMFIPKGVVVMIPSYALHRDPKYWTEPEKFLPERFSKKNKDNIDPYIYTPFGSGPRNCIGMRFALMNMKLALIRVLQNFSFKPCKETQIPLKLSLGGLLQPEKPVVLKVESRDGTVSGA

Fatty acid synthase [17] = molecular target: T3, Fatty acid synthase (Homo sapiens, UniProt P49327); assay: inhibition of human FAS-TE enzyme activity – biochemical, kinetic fluorescence intensity, dose response (AID 624326); type: functional;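 note: rate of fluorescence rise from hydrolysis of a fluorogenic O-methyl fluorescein ester substrate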
T3 sequence (P49327 whole entry): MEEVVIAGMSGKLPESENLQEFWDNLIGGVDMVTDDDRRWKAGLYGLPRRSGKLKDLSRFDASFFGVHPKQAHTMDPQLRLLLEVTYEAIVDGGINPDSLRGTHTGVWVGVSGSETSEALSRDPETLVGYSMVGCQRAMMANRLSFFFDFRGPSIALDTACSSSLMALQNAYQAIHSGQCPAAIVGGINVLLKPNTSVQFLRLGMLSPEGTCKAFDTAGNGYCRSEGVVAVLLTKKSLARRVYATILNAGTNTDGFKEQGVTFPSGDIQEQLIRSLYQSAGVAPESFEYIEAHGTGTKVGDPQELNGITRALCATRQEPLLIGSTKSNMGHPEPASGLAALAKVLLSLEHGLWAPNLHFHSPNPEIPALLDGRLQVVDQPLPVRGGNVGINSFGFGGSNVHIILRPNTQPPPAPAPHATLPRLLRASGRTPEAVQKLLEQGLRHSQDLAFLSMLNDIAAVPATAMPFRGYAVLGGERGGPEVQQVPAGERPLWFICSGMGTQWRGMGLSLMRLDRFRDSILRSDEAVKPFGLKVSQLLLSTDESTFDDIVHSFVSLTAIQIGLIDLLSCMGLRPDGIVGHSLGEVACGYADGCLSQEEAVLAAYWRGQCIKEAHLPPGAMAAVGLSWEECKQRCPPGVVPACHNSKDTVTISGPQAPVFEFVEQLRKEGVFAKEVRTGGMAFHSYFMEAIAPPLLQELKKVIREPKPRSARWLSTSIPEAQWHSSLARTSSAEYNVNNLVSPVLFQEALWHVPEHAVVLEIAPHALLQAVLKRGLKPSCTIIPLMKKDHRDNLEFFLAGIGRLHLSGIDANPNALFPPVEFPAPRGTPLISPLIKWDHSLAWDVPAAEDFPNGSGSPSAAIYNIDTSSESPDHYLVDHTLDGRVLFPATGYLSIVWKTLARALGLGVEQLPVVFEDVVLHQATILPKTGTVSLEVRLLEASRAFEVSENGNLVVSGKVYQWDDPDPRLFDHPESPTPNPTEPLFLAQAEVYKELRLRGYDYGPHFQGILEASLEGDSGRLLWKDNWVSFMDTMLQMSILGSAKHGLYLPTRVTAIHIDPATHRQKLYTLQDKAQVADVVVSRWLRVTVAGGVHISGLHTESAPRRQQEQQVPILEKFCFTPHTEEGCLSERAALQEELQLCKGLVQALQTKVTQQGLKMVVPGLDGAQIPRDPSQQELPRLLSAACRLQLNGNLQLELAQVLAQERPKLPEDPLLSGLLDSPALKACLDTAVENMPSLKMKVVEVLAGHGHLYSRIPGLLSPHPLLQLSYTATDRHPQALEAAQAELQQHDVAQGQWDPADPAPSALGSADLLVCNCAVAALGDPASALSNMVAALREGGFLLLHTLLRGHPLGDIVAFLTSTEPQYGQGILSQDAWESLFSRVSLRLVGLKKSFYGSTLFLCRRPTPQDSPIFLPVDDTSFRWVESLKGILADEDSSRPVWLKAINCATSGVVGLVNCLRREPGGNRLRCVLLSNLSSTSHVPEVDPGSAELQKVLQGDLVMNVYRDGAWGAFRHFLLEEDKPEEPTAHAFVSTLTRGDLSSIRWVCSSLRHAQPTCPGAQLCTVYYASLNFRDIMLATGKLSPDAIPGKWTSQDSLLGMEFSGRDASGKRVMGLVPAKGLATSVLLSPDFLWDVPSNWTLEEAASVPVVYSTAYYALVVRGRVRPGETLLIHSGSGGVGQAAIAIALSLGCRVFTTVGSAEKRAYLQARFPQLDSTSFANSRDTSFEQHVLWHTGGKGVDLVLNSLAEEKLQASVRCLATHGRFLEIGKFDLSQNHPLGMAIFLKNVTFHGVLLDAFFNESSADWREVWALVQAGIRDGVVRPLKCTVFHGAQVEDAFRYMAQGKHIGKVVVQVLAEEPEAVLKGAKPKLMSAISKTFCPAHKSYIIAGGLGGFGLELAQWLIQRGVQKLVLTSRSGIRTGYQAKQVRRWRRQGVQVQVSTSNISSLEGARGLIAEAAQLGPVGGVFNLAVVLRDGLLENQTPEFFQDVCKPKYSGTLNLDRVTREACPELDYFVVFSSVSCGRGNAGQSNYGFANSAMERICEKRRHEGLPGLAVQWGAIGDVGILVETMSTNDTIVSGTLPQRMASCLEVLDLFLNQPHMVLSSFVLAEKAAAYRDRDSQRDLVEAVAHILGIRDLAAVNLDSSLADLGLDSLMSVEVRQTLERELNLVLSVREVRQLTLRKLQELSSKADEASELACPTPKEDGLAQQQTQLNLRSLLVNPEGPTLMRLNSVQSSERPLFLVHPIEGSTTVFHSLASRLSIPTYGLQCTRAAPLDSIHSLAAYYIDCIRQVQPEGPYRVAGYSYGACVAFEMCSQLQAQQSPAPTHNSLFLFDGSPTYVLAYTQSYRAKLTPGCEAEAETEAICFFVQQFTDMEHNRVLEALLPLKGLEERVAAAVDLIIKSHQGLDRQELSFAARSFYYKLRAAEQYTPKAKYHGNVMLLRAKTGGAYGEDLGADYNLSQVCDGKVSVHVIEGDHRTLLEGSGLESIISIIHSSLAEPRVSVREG

[18] = tested on: Streptococcus sp. 'group A'; assay: Streptococcus pyogenes SK(-)GAS viability under kanamycin – luminescence, BacTiterGlo, confirmation, counter-screen for streptokinase expression inhibitor project, dose response (AID 1900); type: functional, organism-based
Streptokinase A = molecular target: T4, Streptokinase A (Streptococcus pyogenes serotype M1, UniProt P10520); assay: viability-normalized secreted streptokinase activity reduction – plasminogen activation absorbance, OD405, dose response (AID 1914); type: functional, Streptococcus pyogenes M1 GAS;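 note: secreted streptokinase activity via plasminogen activation per viability signal from cell pellet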
T4 sequence (P10520 whole entry): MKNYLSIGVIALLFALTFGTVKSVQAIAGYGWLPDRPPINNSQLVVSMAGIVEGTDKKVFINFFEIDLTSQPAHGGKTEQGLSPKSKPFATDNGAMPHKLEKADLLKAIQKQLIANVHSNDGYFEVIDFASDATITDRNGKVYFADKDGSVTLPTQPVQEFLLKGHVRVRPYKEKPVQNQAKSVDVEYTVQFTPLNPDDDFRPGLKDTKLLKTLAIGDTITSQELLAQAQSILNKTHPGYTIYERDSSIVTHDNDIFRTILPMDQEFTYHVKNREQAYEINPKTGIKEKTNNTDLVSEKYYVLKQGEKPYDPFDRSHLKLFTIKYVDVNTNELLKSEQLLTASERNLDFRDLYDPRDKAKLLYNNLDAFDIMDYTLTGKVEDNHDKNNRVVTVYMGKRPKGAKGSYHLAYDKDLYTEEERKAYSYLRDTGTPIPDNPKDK

[19] = microbe, parasite or virus in culture; type: functional; conditions: Mycobacterium tuberculosis
[20] = molecular target: T5, Calpain-2 catalytic subunit (Sus scrofa, UniProt P43367); assay: m-calpain protease blockers, concentration series – biochemical, fluorogenic peptide substrate, dose response (AID 1420); type: functional
T5 sequence (P43367 whole entry): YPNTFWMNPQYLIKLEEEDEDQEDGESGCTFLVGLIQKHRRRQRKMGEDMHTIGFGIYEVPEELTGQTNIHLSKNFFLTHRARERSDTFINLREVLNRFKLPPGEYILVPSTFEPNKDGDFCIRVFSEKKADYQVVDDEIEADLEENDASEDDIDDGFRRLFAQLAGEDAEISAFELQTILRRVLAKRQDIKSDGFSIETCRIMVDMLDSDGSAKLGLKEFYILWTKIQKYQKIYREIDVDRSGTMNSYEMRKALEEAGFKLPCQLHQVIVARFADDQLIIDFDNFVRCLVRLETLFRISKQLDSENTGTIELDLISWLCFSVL

Fatty acid synthase [21] = molecular target: T3, Fatty acid synthase; assay: inhibition of human FAS-TE enzyme activity – biochemical, endpoint fluorescence intensity, uHTS hits, dose response (AID 624327); type: functional;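 note: fluorescence from hydrolysis of an O-methyl fluorescein acyl ester substrate by the enzyme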
Streptococcus = assay: GAS UMAA2166 growth inhibition – luminescence, BacTiterGlo, counter-screen for streptokinase expression inhibitor project, dose response (AID 1915); type: functional, organism-based;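 note: potency for reduction of bacterial viability or growth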
[22] = blockers of bursicon-stimulated LGR2 cAMP reporter – cell-based, HEK293, CRE-luciferase reporter, cherry pick, set 2, dose response (AID 743343); type: functional;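 note: transfected cells were stimulated with diluted bursicon conditioned medium after compound addition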
[23] = A549 cell cytotoxicity, dose response, cytotoxicity control, plate reader, cherry-pick, antagonist series (AID 743412); type: functional, cell-based
[24] = blockade of melanocortin 4 receptor signaling – cell-based, plate reader, cherry pick, counter-screen for LGR2 antagonist project, dose response (AID 743444); type: functional;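 note: transfected HEK 293 cells stimulated with alpha-MSH peptide; potency of inhibitors of the alpha-MSH evoked signal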
[25] = viability loss in HEK293 cells – cell-based, plate reader, cherry-picked samples, cytotoxicity control, dose response (AID 743446); type: functional

Eukaryotic translation initiation factor 4E, sequence (P63073 whole entry): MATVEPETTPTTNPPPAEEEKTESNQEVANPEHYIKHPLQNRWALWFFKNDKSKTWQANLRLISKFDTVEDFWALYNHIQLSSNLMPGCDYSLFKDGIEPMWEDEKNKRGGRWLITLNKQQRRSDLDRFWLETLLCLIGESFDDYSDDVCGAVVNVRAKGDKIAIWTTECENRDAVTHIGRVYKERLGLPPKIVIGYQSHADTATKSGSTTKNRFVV

CCn1cc(C(=O)OCC(=O)c2cc(C)n(-c3ccc(OC(F)F)cc3)c2C)c(=O)c2ccc(C)nc21
IC50 [1]: > 64 µM (inactive)

Cc1ccc(CCCOC(=O)C[N+]2(C)CCCCC2)cc1
IC50 [2]: 2.57 µM (active)
IC50 [3]: 2.58 µM (active)

O=[N+]([O-])c1ccc(C[n+]2cccc3ccccc32)cc1
IC50 [2]: 3.26 µM (active)
IC50 [3]: 5.45 µM (active)

COc1ccc(/C=C(\NC(=O)c2ccccc2)C(=O)OC[C@@H]2CCC[N+]3(C)CCCCC23)cc1OC (some centres not stated)
IC50 [4]: 6.62 µM (active)
IC50 [2]: 2.2 µM (active)
IC50 [3]: 3.58 µM (active)

CC(C)(C)NC(=O)C(=O)NN=C1CCCCCCC1
IC50 [1]: 50 µM (inactive)

CCOc1ccc(NC(=O)c2cc3ccccc3cc2O)cc1
IC50 [2]: 12.9 µM (active)
IC50 [3]: 47.5 µM (active)

CCCc1nc(SCC(=O)Nc2nnc(SCC)s2)c2c(=O)n(C)c(=O)n(C)c2n1
IC50 (HEK293 [5]): 4.78 µM (active)
IC50 (HEK293 [6]): > 20 µM (inactive)
IC50 (HEK293 [7]): 7.04 µM (active)
EC50 (HEK293 [8]): > 20 µM (inactive)

CCc1ccc(C(=O)CSc2nnc[nH]2)cc1
IC50 (Leucine aminopeptidase): 16.7 µM (active)
IC50 [1]: > 64 µM (inactive)

O=C1C2CC=CCC2C(=O)N1c1nc(CCc2ccccc2)n[nH]1 (configuration not stated)
IC50 [9]: > 100 µM (not active)

COc1cc(NC2c3ccccc3C(=O)N2Cc2ccccc2)cc(OC)c1OC (configuration not stated)
AC50 [10]: 7.97 µM (active)
AC50 [11]: 9.63 µM (active)
AC50 [12]: 8.41 µM (active)
AC50 [13]: 13.1 µM (active)

CCCOC(=O)c1[nH]c2c(c1C)C(=O)CC(c1cc(OC)c(OC)c(OC)c1)C2 (configuration not stated)
IC50 (HEK293 [5]): 4.9 µM (active)
AC50 [14]: 52.9 µM (active)
IC50 (HEK293 [6]): 16.4 µM (active)
IC50 (HEK293 [7]): 6.21 µM (active)
EC50 (HEK293 [8]): 2.78 µM (active)
AC50 [15]: 6.82 µM (active)
AC50 [16]: 1.92 µM (active)

O=C(COC(=O)/C=C/c1ccco1)Nc1ncc(C(F)(F)F)cc1Cl
IC50 [4]: 4.77 µM (active)
IC50 [2]: 16.9 µM (active)
IC50 [3]: 29.9 µM (active)

CCCn1c(-c2ccc(F)cc2)nc2c(NCCCCN(C)C)nc(C)nc21
AC50 (Cytochrome P450 3A4): 25.1 µM (inconclusive)

O=C(CCc1ccc(O)cc1)c1c(O)cc(O)cc1O[C@H]1OC(CO)C(O)C(O)C1O (some centres not stated)
AC50 (Cytochrome P450 3A4): 39.8 µM (inconclusive)

O=C(O)/C=C/C(=O)Nc1ccccc1C(=O)OCC(=O)c1ccc2c(c1)OCCO2
IC50 (Leucine aminopeptidase): 36.9 µM (active)

Cc1ccc(S(=O)(=O)N(CC(=O)O)Cc2ccco2)cc1
IC50 [2]: 16 µM (active)
IC50 [3]: 28.4 µM (active)

CCC1=C2CC[C@H]3C(=O)NC(=O)[C@H]3[C@H]2[C@@]2(C)/C(=N/CC3CC3)OC(=O)N2C1=O
AC50 (Cytochrome P450 3A4): 25.1 µM (inconclusive)

CC(C)C[C@H](NC(=O)c1[nH]cnc1C(=O)NC1CCN(C(=O)OC(C)(C)C)CC1)C(=O)OCc1ccccc1
IC50 (Fatty acid synthase [17]): 6.28 µM (active)
EC50 [18]: 8.37 µM (active)
EC50 (Streptokinase A): > 150 µM (not active)
CC50 [19]: > 40 µM (active)
IC50 [20]: 4.9 µM (not active)
IC50 (Fatty acid synthase [21]): 8.64 µM (active)
EC50 (Streptococcus): 12.3 µM (active)

O=C(O)C1CC=CCC1C(=O)Nc1ccccc1Cl (configuration not stated)
IC50 (Leucine aminopeptidase): 12 µM (active)

COc1cc(NC2c3ccccc3C(=O)N2Cc2ccc3c(c2)OCO3)cc(OC)c1OC (configuration not stated)
AC50 [10]: 10.1 µM (active)
AC50 [11]: 14.7 µM (active)
AC50 [12]: 6.77 µM (active)
AC50 [13]: 5.79 µM (active)

O=C(O)CS(=O)(=O)c1ccc2ccccc2c1
IC50 [9]: > 100 µM (not active)

Oc1nc2ccccc2n1C1CCN(C(c2ccccc2OC(F)(F)F)c2nnnn2Cc2ccccc2)CC1 (configuration not stated)
AC50 [22]: 20.5 µM (active)
AC50 [23]: 18.9 µM (active)
AC50 [24]: 22.9 µM (active)
AC50 [25]: 17.6 µM (active)

c1ccc2c(Cc3c[nH]c4ccccc34)c[nH]c2c1 [ARUNDINE]
AC50 (Cytochrome P450 3A4): 39.8 µM (inconclusive)

COC(=O)CC[C@@H](C)[C@H]1CC[C@H]2[C@@H]3[C@H](O)C[C@@H]4C[C@H](O)CC[C@]4(C)[C@H]3C[C@H](O)[C@]12C [CHOLIC ACID, METHYL ESTER]
AC50 (Cytochrome P450 3A4): 31.6 µM (inconclusive)
